Laboratory results taken from patent publication US20070049564A1 (Wyeth, priority 2005, published 2007).
Like-named read-outs stand apart in the source and are kept apart here.

Columns and labels:
E. coli GC 1073 = experiment: MIC, broth microdilution; details: Escherichia coli
S. pyogenes GC 4563 = experiment: MIC, broth microdilution; details: Streptococcus pyogenes
E. coli = experiment: Range of MIC for E. coli strains; details: Escherichia coli
c. albicans GC 3066 = experiment: MIC, broth microdilution
S. aureus GC 1079 = experiment: MIC, broth microdilution; details: Staphylococcus aureus
Protocol: (§1) Antimicrobial susceptibility testing. The in vitro activities of the antibiotics are determined by the broth microdilution method as recommended by the National Committee for Clinical Laboratory Standards (NCCLS) (1). Mueller-Hinton II broth (MHBII)(BBL Cockeysville, Md.) is the medium employed in the testing procedures. Microtiter plates containing serial dilutions of each antimicrobial agent are inoculated with each organism to yield the appropriate density (10^5 CFU/ml) in a 100 μl final volume. The plates are incubated for 18-22 hours at 35° C. in ambient air.
(§2) Representative compounds were first incubated in mouse serum for an hour prior to the in vitro testing against a panel of selected gram-positive and gram-negative bacteria strains. All compounds were also pre-incubated in water for an hour prior to testing as control. Representative compounds of Formula I were incubated in human serum prior to MIC determination.

E. faecium GC 4556 = experiment: MIC, broth microdilution; details: Enterococcus faecium
E. faecalis GC 4555 = experiment: MIC, broth microdilution; details: Enterococcus faecalis
E. faecium GC 2243 = experiment: MIC, broth microdilution; details: Enterococcus faecium
S. aureus GC 6469 = experiment: MIC, broth microdilution; details: Staphylococcus aureus
E. coli GC 2233 = experiment: MIC, broth microdilution; details: Escherichia coli
E. coli GC 2236 = experiment: MIC, broth microdilution; details: Escherichia coli
E. coli GC 2271 = experiment: MIC, broth microdilution; details: Escherichia coli
E. coli GC 3226 = experiment: MIC, broth microdilution; details: Escherichia coli
S. agalactiae GC 4564 = experiment: MIC, broth microdilution; details: Streptococcus agalactiae
Staph. = experiment: Range of MIC for Staph. strains, including MRSA; details: Staphylococcus aureus
E. coli GC 2270 = experiment: MIC, broth microdilution; details: Escherichia coli
S. aureus GC 6335 = experiment: MIC, broth microdilution; details: Staphylococcus aureus
Protocol: as §1, §2

E. faecalis GC 2265 = experiment: MIC, broth microdilution; details: Enterococcus faecalis
E. coli GC 2235 = experiment: MIC, broth microdilution; details: Escherichia coli
S. typhimurium GC 2172 = experiment: MIC, broth microdilution; details: Salmonella enterica, TYPHIMURIUM

CC(C)C(=O)OCOC(=O)N(CC(=O)Nc1cc(N(C)C)c2c(c1O)C(=O)C1=C(O)[C@]3(O)C(=O)C(C(N)=O)=C(O)[C@@H](N(C)C)[C@@H]3C[C@@H]1C2)C(C)(C)C [Example 45, ({[(2-{[(5aR,6aS,7S,10aS)-9-(aminocarbonyl)-4,7-bis(dimethylamino)-1,8,10a,11-tetrahydroxy-10,12-dioxo-5,5a,6,6a,7,10,10a,12-octahydrotetracen-2-yl]amino}-2-oxoethyl)(tert-butyl)amino]carbonyl}oxy)methyl 2-methylpropanoate]
2 µg/mL: MIC (E. faecium GC 4556; GC4556, read-out: MINIMAL INHIBITORY CONCENTRATION MIC, pre-incubated in Water) | MIC (E. faecalis GC 4555; GC4555, read-out: MINIMAL INHIBITORY CONCENTRATION MIC, pre-incubated in Human Serum) | MIC (E. faecalis GC 4555; GC4555, read-out: MINIMAL INHIBITORY CONCENTRATION MIC, pre-incubated in Water) | MIC (E. faecium GC 2243; GC2243, read-out: MINIMAL INHIBITORY CONCENTRATION MIC, pre-incubated in Water) | MIC (S. aureus GC 6335; GC6335, read-out: MINIMAL INHIBITORY CONCENTRATION MIC, pre-incubated in Water) | MIC (S. typhimurium GC 2172; read-out: MINIMAL INHIBITORY CONCENTRATION MIC, pre-incubated in Mouse Serum)
1 µg/mL: MIC (E. coli GC 1073; GC1073, read-out: MINIMAL INHIBITORY CONCENTRATION MIC, pre-incubated in Mouse Serum) | MIC (S. aureus GC 1079; GC1079, read-out: MINIMAL INHIBITORY CONCENTRATION MIC, pre-incubated in Water) | MIC (E. faecium GC 4556; GC4556, read-out: MINIMAL INHIBITORY CONCENTRATION MIC, pre-incubated in Human Serum) | MIC (E. faecium GC 4556; GC4556, read-out: MINIMAL INHIBITORY CONCENTRATION MIC, pre-incubated in Mouse Serum) | MIC (E. faecalis GC 4555; GC4555, read-out: MINIMAL INHIBITORY CONCENTRATION MIC, pre-incubated in Mouse Serum) | MIC (E. faecium GC 2243; GC2243, read-out: MINIMAL INHIBITORY CONCENTRATION MIC, pre-incubated in Human Serum) | MIC (S. aureus GC 6469; GC6469, read-out: MINIMAL INHIBITORY CONCENTRATION MIC, pre-incubated in Mouse Serum) | MIC (S. aureus GC 6469; GC6469, read-out: MINIMAL INHIBITORY CONCENTRATION MIC, pre-incubated in Water) | MIC (E. coli GC 2233; GC2233, read-out: MINIMAL INHIBITORY CONCENTRATION MIC, pre-incubated in Mouse Serum) | MIC (E. coli GC 2236; GC2236, read-out: MINIMAL INHIBITORY CONCENTRATION MIC, pre-incubated in Mouse Serum) | MIC (E. coli GC 3226; GC3226, read-out: MINIMAL INHIBITORY CONCENTRATION MIC, pre-incubated in Mouse Serum) | MIC (S. aureus GC 6335; GC6335, read-out: MINIMAL INHIBITORY CONCENTRATION MIC, pre-incubated in Mouse Serum) | MIC (E. faecalis GC 2265; GC2265, read-out: MINIMAL INHIBITORY CONCENTRATION MIC, pre-incubated in Human Serum)
0.5 to 2 µg/mL: MIC (E. coli; 20 h, read-out: Range of MIC, E. coli (Mouse Serum)) | MIC (Staph.; MRSA, read-out: Range of MIC, Staph (Water)) | MIC (Staph.; read-out: Minimum inhibitory concentration (MIC), Staph (Water))
> 64 µg/mL: MIC (c. albicans GC 3066; Candida albicans, GC3066, read-out: MINIMAL INHIBITORY CONCENTRATION MIC) | MIC (S. typhimurium GC 2172; read-out: MINIMAL INHIBITORY CONCENTRATION MIC, pre-incubated in Water)
4 µg/mL: MIC (E. coli GC 2233; GC2233, read-out: MINIMAL INHIBITORY CONCENTRATION MIC, pre-incubated in Human Serum) | MIC (E. coli GC 2236; GC2236, read-out: MINIMAL INHIBITORY CONCENTRATION MIC, pre-incubated in Human Serum) | MIC (E. coli GC 2271; GC2271, read-out: MINIMAL INHIBITORY CONCENTRATION MIC, pre-incubated in Human Serum) | MIC (E. coli GC 2270; GC2270, read-out: MINIMAL INHIBITORY CONCENTRATION MIC, pre-incubated in Human Serum) | MIC (E. faecalis GC 2265; GC2265, read-out: MINIMAL INHIBITORY CONCENTRATION MIC, pre-incubated in Water) | MIC (E. coli GC 2235; GC2235, read-out: MINIMAL INHIBITORY CONCENTRATION MIC, pre-incubated in Human Serum)
32 µg/mL: MIC (E. coli GC 2270; GC2270, read-out: MINIMAL INHIBITORY CONCENTRATION MIC, pre-incubated in Water) | MIC (S. typhimurium GC 2172; read-out: MINIMAL INHIBITORY CONCENTRATION MIC, pre-incubated in Human Serum)
0.25 µg/mL: MIC (S. pyogenes GC 4563; GC4563, read-out: MINIMAL INHIBITORY CONCENTRATION MIC, pre-incubated in Human Serum) | MIC (S. pyogenes GC 4563; GC4563, read-out: MINIMAL INHIBITORY CONCENTRATION MIC, pre-incubated in Mouse Serum) | MIC (S. agalactiae GC 4564; GC4564, read-out: MINIMAL INHIBITORY CONCENTRATION MIC, pre-incubated in Mouse Serum)
>64 UG/ML: MINIMAL INHIBITORY CONCENTRATION MIC (c. albicans GC 3066; pre-incubated in Human Serum) | MINIMAL INHIBITORY CONCENTRATION MIC (c. albicans GC 3066; pre-incubated in Mouse Serum)
0.5 µg/mL: MIC (S. pyogenes GC 4563; GC4563, read-out: MINIMAL INHIBITORY CONCENTRATION MIC, pre-incubated in Water) | MIC (S. aureus GC 1079; GC1079, read-out: MINIMAL INHIBITORY CONCENTRATION MIC, pre-incubated in Mouse Serum) | MIC (E. faecium GC 2243; GC2243, read-out: MINIMAL INHIBITORY CONCENTRATION MIC, pre-incubated in Mouse Serum) | MIC (S. aureus GC 6469; GC6469, read-out: MINIMAL INHIBITORY CONCENTRATION MIC, pre-incubated in Human Serum) | MIC (E. coli GC 2271; GC2271, read-out: MINIMAL INHIBITORY CONCENTRATION MIC, pre-incubated in Mouse Serum) | MIC (S. agalactiae GC 4564; GC4564, read-out: MINIMAL INHIBITORY CONCENTRATION MIC, pre-incubated in Human Serum) | MIC (S. agalactiae GC 4564; GC4564, read-out: MINIMAL INHIBITORY CONCENTRATION MIC, pre-incubated in Water) | MIC (E. coli GC 2270; GC2270, read-out: MINIMAL INHIBITORY CONCENTRATION MIC, pre-incubated in Mouse Serum) | MIC (S. aureus GC 6335; GC6335, read-out: MINIMAL INHIBITORY CONCENTRATION MIC, pre-incubated in Human Serum) | MIC (E. faecalis GC 2265; GC2265, read-out: MINIMAL INHIBITORY CONCENTRATION MIC, pre-incubated in Mouse Serum) | MIC (E. coli GC 2235; GC2235, read-out: MINIMAL INHIBITORY CONCENTRATION MIC, pre-incubated in Mouse Serum)
16 µg/mL: MIC (E. coli GC 2233; GC2233, read-out: MINIMAL INHIBITORY CONCENTRATION MIC, pre-incubated in Water) | MIC (E. coli GC 2236; GC2236, read-out: MINIMAL INHIBITORY CONCENTRATION MIC, pre-incubated in Water) | MIC (E. coli GC 2271; GC2271, read-out: MINIMAL INHIBITORY CONCENTRATION MIC, pre-incubated in Water) | MIC (E. coli GC 2235; GC2235, read-out: MINIMAL INHIBITORY CONCENTRATION MIC, pre-incubated in Water)
4 to 16 µg/mL: MIC (E. coli; read-out: Minimum inhibitory concentration (MIC), E. coli (Human Serum))
8 µg/mL: MIC (E. coli GC 1073; GC1073, read-out: MINIMAL INHIBITORY CONCENTRATION MIC, pre-incubated in Human Serum) | MIC (E. coli GC 3226; GC3226, read-out: MINIMAL INHIBITORY CONCENTRATION MIC, pre-incubated in Human Serum)
0.12 to 1 µg/mL: MIC (Staph.; read-out: Minimum inhibitory concentration (MIC), Staph (Human Serum))
0.12 µg/mL: MIC (S. aureus GC 1079; GC1079, read-out: MINIMAL INHIBITORY CONCENTRATION MIC, pre-incubated in Human Serum)
0.25 to 1 µg/mL: MIC (Staph.; MRSA, read-out: Range of MIC, Staph (Mouse Serum))
64 µg/mL: MIC (E. coli GC 1073; GC1073, read-out: MINIMAL INHIBITORY CONCENTRATION MIC, pre-incubated in Water) | MIC (E. coli GC 3226; GC3226, read-out: MINIMAL INHIBITORY CONCENTRATION MIC, pre-incubated in Water)
